pIC50: −log10 of the molar value.
Assays:
Ephrin type-A receptor 5 = Ephrin type-A receptor 5 (Homo sapiens, UniProt P54756); test: Inhibition of EphA5 (unknown origin)
[1] = Toxicity in CB17-SCID mouse assessed as drug tolerance at 50 mg/kg/day administered via oral gavage measured every 2 days for 12 days; type: organism-based; settings: in vivo, 288 h, time 12 day
[2] = molecular target: Vascular endothelial growth factor receptor 2 (Homo sapiens, UniProt P35968); test: Inhibition of KDR (unknown origin)
[3] = Toxicity in CB17-SCID mouse assessed as effect on body weight loss at 50 mg/kg/day administered via oral gavage measured every 2 days for 12 days; type: organism-based; settings: in vivo, 288 h, time 12 day
[4] = Clearance in ICR mouse at 2.0 mg/kg, iv measured upto 24 hrs by LC-MS/MS analysis; type: ADME, organism-based; settings: in vivo
Angiopoietin-1 receptor = Angiopoietin-1 receptor (Homo sapiens, UniProt Q02763); test: Inhibition of Tie2 (unknown origin)
[5] = molecular target: Receptor-type tyrosine-protein kinase FLT3 (Homo sapiens, UniProt P36888); test: Inhibition of FLT3 (unknown origin)
Chain of Receptor-type tyrosine-protein kinase FLT3 (P36888 whole entry): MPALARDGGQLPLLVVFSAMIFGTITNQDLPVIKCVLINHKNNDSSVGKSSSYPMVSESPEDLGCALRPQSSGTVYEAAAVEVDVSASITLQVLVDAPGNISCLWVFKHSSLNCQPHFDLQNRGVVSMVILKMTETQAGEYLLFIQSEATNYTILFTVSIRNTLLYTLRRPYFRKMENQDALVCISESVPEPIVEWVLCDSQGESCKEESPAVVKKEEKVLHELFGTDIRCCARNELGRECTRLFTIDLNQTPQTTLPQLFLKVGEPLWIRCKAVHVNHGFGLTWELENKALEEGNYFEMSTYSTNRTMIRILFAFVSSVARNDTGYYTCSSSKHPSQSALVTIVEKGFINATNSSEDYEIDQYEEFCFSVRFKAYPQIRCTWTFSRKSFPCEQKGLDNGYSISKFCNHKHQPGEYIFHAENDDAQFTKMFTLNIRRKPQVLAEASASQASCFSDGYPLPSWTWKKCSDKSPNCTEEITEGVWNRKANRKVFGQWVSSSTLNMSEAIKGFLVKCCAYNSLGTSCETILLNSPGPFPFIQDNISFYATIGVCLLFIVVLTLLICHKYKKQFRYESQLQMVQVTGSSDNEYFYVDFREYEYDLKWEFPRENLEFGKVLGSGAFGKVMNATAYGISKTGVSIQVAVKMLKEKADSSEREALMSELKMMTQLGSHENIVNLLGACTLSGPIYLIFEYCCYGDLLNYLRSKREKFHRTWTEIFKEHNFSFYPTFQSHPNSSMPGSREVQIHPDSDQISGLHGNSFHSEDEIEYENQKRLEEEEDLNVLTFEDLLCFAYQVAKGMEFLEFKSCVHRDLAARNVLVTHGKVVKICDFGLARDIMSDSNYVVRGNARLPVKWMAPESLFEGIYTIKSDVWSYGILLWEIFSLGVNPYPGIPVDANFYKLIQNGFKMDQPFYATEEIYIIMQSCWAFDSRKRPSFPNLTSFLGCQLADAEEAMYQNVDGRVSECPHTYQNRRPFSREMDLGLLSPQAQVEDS

[6] = molecular target: Tyrosine-protein kinase receptor UFO (Homo sapiens, UniProt P30530); test: Inhibition of Axl (unknown origin)
Chain of Tyrosine-protein kinase receptor UFO (P30530 whole entry): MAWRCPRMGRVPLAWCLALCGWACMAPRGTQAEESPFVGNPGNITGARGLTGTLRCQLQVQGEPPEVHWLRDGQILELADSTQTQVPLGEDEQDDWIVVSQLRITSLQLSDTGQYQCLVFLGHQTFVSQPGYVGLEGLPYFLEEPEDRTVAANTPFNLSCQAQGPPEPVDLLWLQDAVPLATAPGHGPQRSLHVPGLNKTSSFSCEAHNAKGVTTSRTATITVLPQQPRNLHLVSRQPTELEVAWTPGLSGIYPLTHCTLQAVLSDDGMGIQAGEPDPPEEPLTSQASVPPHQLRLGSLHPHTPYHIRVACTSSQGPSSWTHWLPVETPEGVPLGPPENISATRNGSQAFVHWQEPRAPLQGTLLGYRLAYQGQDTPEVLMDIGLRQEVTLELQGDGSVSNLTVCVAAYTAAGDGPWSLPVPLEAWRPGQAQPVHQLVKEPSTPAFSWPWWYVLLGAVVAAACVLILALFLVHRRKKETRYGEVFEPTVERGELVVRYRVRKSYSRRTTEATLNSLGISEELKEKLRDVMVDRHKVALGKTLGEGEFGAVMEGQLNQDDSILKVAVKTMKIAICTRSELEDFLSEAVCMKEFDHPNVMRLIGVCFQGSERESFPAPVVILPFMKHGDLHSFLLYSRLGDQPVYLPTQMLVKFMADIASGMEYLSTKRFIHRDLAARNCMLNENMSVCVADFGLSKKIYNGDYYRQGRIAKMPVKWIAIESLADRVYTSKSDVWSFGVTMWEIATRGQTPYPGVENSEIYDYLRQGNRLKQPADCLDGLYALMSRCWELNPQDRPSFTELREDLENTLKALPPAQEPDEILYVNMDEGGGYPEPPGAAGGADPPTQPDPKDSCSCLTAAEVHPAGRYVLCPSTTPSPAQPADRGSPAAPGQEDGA

[7] = AUC (0 to infinity) in ICR mouse at 2.0 mg/kg, iv measured upto 24 hrs by LC-MS/MS analysis; type: ADME, organism-based; parameters: dose 2 mg/kg, time < 24 hrs, route iv; settings: in vivo
[8] = Half life in ICR mouse at 2.0 mg/kg, iv measured upto 24 hrs by LC-MS/MS analysis; type: ADME, organism-based; settings: in vivo
[9] = AUC (0 to t) in ICR mouse at 2.0 mg/kg, iv measured upto 24 hrs by LC-MS/MS analysis; type: ADME, organism-based; parameters: time < 24 hrs, dose 2 mg/kg, route iv; settings: in vivo
[10] = Tmax in ICR mouse at 10 mg/kg, po measured upto 24 hrs by LC-MS/MS analysis; type: ADME, organism-based; settings: in vivo
[11] = AUC (0 to t) in ICR mouse at 10 mg/kg, po measured upto 24 hrs by LC-MS/MS analysis; type: ADME, organism-based; parameters: time < 24 hrs, dose 10 mg/kg, route po; settings: in vivo
[12] = Cmax in ICR mouse at 10 mg/kg, po measured upto 24 hrs by LC-MS/MS analysis; type: ADME, organism-based; parameters: dose 10 mg/kg, time < 24 hrs, route po; settings: in vivo
[13] = molecular target: Cyclin-dependent kinase 14 (Homo sapiens, UniProt O94921); test: Inhibition of CDK14 (unknown origin)
Ephrin type-A receptor 2 = Ephrin type-A receptor 2 (Homo sapiens, UniProt P29317); test: Inhibition of EphA2 (unknown origin)
Chain of Ephrin type-A receptor 2 (P29317 whole entry): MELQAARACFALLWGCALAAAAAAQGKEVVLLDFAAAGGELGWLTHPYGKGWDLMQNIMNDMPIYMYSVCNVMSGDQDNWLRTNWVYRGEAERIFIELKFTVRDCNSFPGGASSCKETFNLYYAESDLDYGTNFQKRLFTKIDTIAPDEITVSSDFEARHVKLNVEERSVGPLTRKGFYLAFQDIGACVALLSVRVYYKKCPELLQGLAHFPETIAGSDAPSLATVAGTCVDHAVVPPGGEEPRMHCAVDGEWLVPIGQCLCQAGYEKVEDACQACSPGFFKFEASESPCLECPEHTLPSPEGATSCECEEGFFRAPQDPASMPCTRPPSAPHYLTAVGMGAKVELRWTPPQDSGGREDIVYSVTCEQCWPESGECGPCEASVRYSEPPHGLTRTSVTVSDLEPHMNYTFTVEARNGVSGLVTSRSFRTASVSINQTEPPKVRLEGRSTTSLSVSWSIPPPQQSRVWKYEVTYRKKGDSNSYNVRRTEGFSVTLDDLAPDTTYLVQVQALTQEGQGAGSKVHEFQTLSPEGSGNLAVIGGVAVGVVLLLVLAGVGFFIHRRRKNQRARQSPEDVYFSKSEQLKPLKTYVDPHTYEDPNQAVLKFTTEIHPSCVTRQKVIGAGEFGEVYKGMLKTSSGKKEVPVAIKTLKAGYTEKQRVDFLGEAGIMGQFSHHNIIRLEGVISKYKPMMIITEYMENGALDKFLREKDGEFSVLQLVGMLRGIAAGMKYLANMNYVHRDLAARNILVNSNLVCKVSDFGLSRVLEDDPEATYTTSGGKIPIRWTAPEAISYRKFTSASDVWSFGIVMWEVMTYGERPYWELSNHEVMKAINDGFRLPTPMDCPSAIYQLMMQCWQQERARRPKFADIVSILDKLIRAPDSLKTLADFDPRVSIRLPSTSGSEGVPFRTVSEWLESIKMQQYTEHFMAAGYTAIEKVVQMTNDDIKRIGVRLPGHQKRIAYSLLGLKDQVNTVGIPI

[14] = AUC (0 to infinity) in ICR mouse at 10 mg/kg, po measured upto 24 hrs by LC-MS/MS analysis; type: ADME, organism-based; parameters: dose 10 mg/kg, time < 24 hrs, route po; settings: in vivo
[15] = molecular target: Epithelial discoidin domain-containing receptor 1 (Homo sapiens, UniProt Q08345); test: Inhibition of DDR1 (unknown origin)
[16] = molecular target: Ribosomal protein S6 kinase; test: Inhibition of P70S6K (unknown origin); type: protein assay, Homo sapiens
[17] = molecular target: Tyrosine-protein kinase HCK (Homo sapiens, UniProt P08631); test: Inhibition of Hck (unknown origin)
[18] = molecular target: Vascular endothelial growth factor receptor 3 (Homo sapiens, UniProt P35916); test: Inhibition of FLT4 (unknown origin)
[19] = Cmax in ICR mouse at 2.0 mg/kg, iv measured upto 24 hrs by LC-MS/MS analysis; type: ADME, organism-based; parameters: dose 2 mg/kg, time < 24 hrs, route iv; settings: in vivo
[20] = molecular target: Muscle, skeletal receptor tyrosine-protein kinase (Homo sapiens, UniProt O15146); test: Inhibition of Musk (unknown origin)
[21] = molecular target: Proto-oncogene tyrosine-protein kinase receptor Ret (Homo sapiens, UniProt P07949); test: Inhibition of RET (unknown origin)
Chain of Proto-oncogene tyrosine-protein kinase receptor Ret (P07949 whole entry): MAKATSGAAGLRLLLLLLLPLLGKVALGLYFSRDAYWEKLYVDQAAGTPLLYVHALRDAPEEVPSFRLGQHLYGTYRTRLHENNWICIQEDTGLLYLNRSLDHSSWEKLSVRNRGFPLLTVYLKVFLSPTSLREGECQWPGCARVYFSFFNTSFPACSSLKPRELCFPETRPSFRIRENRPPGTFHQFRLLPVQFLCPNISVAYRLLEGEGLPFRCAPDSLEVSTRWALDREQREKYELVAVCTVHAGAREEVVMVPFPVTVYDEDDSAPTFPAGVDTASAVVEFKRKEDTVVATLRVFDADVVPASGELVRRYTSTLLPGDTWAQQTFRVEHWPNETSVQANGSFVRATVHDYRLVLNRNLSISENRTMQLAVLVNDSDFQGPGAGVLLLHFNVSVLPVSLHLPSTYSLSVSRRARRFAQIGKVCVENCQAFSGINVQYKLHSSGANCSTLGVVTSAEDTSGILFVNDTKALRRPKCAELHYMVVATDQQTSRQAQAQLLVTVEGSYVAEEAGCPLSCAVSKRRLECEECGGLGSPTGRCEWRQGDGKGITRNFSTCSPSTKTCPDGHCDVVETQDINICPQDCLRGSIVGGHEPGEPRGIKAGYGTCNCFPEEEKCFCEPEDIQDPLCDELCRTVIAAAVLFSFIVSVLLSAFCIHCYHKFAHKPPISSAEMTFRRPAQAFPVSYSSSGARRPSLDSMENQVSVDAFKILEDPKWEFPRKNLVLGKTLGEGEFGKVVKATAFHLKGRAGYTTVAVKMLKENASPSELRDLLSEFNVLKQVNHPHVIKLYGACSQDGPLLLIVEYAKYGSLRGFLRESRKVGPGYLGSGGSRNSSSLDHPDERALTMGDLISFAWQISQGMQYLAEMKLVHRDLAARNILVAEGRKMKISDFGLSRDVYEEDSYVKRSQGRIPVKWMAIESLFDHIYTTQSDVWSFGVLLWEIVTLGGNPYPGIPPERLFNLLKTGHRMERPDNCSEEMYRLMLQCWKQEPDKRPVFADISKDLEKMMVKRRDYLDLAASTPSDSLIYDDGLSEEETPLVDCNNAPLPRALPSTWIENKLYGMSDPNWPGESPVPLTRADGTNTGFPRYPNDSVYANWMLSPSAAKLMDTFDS

[22] = Tmax in ICR mouse at 2.0 mg/kg, iv measured upto 24 hrs by LC-MS/MS analysis; type: ADME, organism-based; settings: in vivo
[23] = Oral bioavailability in ICR mouse at 10 mg/kg measured upto 24 hrs by LC-MS/MS analysis; type: ADME, organism-based; settings: in vivo
Ephrin type-A receptor 7 = Ephrin type-A receptor 7 (Homo sapiens, UniProt Q15375); test: Inhibition of EphA7 (unknown origin)
[24] = Half life in ICR mouse at 10 mg/kg, po measured upto 24 hrs by LC-MS/MS analysis; type: ADME, organism-based; settings: in vivo
[25] = molecular target: Tyrosine-protein kinase Mer (Homo sapiens, UniProt Q12866); test: Inhibition of Mer (unknown origin)
[26] = Toxicity in CB17-SCID mouse assessed as mortality at 50 mg/kg/day administered via oral gavage measured every 2 days for 12 days; type: organism-based; settings: in vivo, 288 h, time 12 day

Chain of Ephrin type-A receptor 5 (P54756 whole entry): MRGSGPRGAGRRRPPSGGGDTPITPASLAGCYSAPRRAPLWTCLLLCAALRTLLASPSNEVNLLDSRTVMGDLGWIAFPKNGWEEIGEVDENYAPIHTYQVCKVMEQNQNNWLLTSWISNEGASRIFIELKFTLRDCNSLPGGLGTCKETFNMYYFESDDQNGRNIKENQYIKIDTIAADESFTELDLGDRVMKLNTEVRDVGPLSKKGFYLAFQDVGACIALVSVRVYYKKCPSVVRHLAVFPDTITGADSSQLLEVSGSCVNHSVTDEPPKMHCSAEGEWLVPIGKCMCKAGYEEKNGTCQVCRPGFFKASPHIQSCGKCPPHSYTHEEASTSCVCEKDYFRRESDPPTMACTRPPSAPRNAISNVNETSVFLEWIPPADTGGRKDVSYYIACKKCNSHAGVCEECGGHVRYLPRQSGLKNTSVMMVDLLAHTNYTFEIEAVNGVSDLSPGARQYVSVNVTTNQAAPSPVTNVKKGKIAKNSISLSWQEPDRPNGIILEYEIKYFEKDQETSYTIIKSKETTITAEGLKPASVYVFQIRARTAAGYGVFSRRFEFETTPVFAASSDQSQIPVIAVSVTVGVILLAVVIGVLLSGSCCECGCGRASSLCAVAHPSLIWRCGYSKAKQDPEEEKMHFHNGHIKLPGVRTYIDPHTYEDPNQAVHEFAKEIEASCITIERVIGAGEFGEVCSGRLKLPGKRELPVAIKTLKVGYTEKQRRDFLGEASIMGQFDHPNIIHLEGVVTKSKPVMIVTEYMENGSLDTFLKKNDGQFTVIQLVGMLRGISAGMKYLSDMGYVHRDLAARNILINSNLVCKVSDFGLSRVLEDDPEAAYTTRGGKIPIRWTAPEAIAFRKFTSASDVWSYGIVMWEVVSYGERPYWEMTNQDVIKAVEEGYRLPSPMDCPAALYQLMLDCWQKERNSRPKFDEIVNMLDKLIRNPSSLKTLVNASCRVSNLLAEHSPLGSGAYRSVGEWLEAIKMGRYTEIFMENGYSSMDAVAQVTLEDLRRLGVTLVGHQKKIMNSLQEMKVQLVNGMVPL

SMILES: Cc1c2cc(cc1C(=O)Nc1cc(CN3CCN(C)CC3)cc(C3CC3)c1)OCCCCCCCNC(=O)c1ccc3ncc(n3n1)C#C2
- pIC50 (Ephrin type-A receptor 5): 7.64
- Activity [1]: Non-Toxic
- pIC50 [2]: 7.13
- Activity [3]: Non-Toxic
- clearance [4]: 26.7 mL/min/kg
- pIC50 (Angiopoietin-1 receptor): 7.18
- pIC50 [5]: 7.93
- pIC50 [6]: 5.81
- AUC(0-inf) [7]: 1280 ng·h/mL
- half-life [8]: 1.92 h
- AUC(0-t) at 24 h [9]: 1200 ng·h/mL
- Tmax [10]: 2.17 h
- AUC(0-t) at 24 h [11]: 501 ng·h/mL
- Cmax [12]: 95.2 ng/mL
- pIC50 [13]: 6.81
- pIC50 (Ephrin type-A receptor 2): 7.89
- AUC(0-inf) [14]: 707 ng·h/mL
- pIC50 [15]: 7.62
- IC50 [16]: 66.82 nM
- pIC50 [17]: 6.60
- pIC50 [18]: 7.23
- Cmax [19]: 626 ng/mL
- pIC50 [20]: 7.89
- pIC50 [21]: 8.13
- Tmax [22]: 4.8 min
- bioavailability [23]: 11%
- pIC50 (Ephrin type-A receptor 7): 8.75
- half-life [24]: 4.3 h
- pIC50 [25]: 7.59
- Activity [26]: Non-Toxic
